Data published in ChEMBL document CHEMBL5500396, “Discovery, Multiparametric Optimization, and Solid-State Driven Identification of CHF-6550, a Novel Soft Dual Pharmacology Muscarinic Antagonist and β2 Agonist (MABA) for the Inhaled Treatment of Respiratory Diseases” (J Med Chem, 2024).

Molecular target: Muscarinic acetylcholine receptor M3 (Homo sapiens, UniProt P20309)
Test: not given
Conditions: not given

Sequence of Muscarinic acetylcholine receptor M3 (Homo sapiens, UniProt P20309) (P20309 whole entry): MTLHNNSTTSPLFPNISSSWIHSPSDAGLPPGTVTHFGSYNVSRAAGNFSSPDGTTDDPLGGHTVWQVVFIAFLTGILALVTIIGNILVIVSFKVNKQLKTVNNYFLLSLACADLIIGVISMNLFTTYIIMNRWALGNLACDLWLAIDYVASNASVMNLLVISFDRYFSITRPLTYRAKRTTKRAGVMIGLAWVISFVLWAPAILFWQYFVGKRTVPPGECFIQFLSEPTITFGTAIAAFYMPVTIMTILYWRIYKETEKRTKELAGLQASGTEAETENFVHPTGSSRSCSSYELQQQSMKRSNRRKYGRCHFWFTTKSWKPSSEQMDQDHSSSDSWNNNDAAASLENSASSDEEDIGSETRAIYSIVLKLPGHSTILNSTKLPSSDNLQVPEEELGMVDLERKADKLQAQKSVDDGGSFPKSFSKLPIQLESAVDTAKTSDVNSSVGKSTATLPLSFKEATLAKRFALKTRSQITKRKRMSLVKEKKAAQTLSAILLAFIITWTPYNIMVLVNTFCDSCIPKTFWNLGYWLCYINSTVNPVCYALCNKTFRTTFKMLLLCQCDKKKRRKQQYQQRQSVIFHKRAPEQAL

For COc1cc(C(=O)NCCCOc2cccc([C@](O)(C(=O)OCC3CCN(Cc4ccccc4)CC3)c3ccccc3)c2)c(F)cc1CNC[C@H](O)c1ccc(O)c2[nH]c(=O)ccc12, which Ki is on record?
The Ki was 10 pM.

Which Ki does the source give for O=C(c1ccc(OCc2ccc(CNC[C@H](O)c3ccc(O)c4[nH]c(=O)ccc34)cc2)cc1)N1CC(C(=O)OC2CN3CCC2CC3)(c2ccccc2)C1 (single isomer, unassigned) here?
The Ki was 316 pM.

Which Ki does the source give for COc1cc(C(=O)NCCCOc2cccc([C@](O)(C(=O)OCC3CCN(Cc4ccccc4)CC3)c3ccccc3)c2)ccc1CNC[C@H](O)c1ccc(O)c2[nH]c(=O)ccc12 here?
The Ki was 20 pM.

For O=C(N[C@@H](c1ccccc1)c1cccc(OCc2ccc(C(=O)NCCCNC[C@H](O)c3ccc(O)c4[nH]c(=O)ccc34)cc2)c1)O[C@@H]1CN2CCC1CC2, which Ki is on record?
Its Ki is 100 pM.

System: not listed separately
Test: in vitro
Conditions: guinea pig, lung S9 fraction
Description: Stability in guinea pig lung S9 fraction assessed as half-life at 1 uM incubated for 60 mins by LC-MS/MS analysis

Which half-life at 1 h, 1 µM does the source give for COc1cc(C(=O)NCCCOc2cccc([C@](O)(C(=O)OCC3CCN(Cc4ccccc4)CC3)c3ccccc3)c2)c(F)cc1CNC[C@H](O)c1ccc(O)c2[nH]c(=O)ccc12 here?
The half-life at 1 h, 1 µM was 26 min.

For COc1cc(C(=O)NCCCOc2cccc([C@](O)(C(=O)OCC3CCN(Cc4ccccc4)CC3)c3ccccc3)c2)ccc1CNC[C@H](O)c1ccc(O)c2[nH]c(=O)ccc12, which half-life at 1 h, 1 µM is on record?
Its half-life at 1 h, 1 µM is 29 min.

System: not listed separately
Test: in vitro
Conditions: human, plasma
Description: Stability in human plasma assessed as half-life at 5 uM incubated for 120 mins by LC-MS/MS analysis

With COc1cc(C(=O)NCCCOc2cccc([C@](O)(C(=O)OCC3CCN(Cc4ccccc4)CC3)c3ccccc3)c2)c(F)cc1CNC[C@H](O)c1ccc(O)c2[nH]c(=O)ccc12 as the compound, how does the half-life at 2 h, 5 µM read?
The half-life at 2 h, 5 µM was over 150 min.

With COc1cc(C(=O)NCCCOc2cccc([C@](O)(C(=O)OCC3CCN(Cc4ccccc4)CC3)c3ccccc3)c2)ccc1CNC[C@H](O)c1ccc(O)c2[nH]c(=O)ccc12 as the compound, how does the half-life at 2 h, 5 µM read?
The half-life at 2 h, 5 µM was over 150 min.

System: Trachea
Test: Inhibition of carbachol-induced smooth muscle contraction in male albino Dunkin-Hartley guinea pig trachea
Conditions: Cavia porcellus, read-out: pIC50 (converted)

For O=C(c1ccc(OCc2ccc(CNC[C@H](O)c3ccc(O)c4[nH]c(=O)ccc34)cc2)cc1)N1CC(C(=O)OC2CN3CCC2CC3)(c2ccccc2)C1 (single isomer, unassigned), which IC50 is on record?
Its IC50 is 1000 pM.

Which IC50 does the source give for O=C(N[C@@H](c1ccccc1)c1cccc(OCc2ccc(C(=O)NCCCNC[C@H](O)c3ccc(O)c4[nH]c(=O)ccc34)cc2)c1)O[C@@H]1CN2CCC1CC2 here?
Its IC50 is 158 pM.

System: not listed separately
Test: in vitro
Conditions: rat, lung S9 fraction
Description: Stability in rat lung S9 fraction assessed as half-life at 1 uM incubated for 60 mins by LC-MS/MS analysis

Which half-life at 1 h, 1 µM does the source give for COc1cc(C(=O)NCCCOc2cccc([C@](O)(C(=O)OCC3CCN(Cc4ccccc4)CC3)c3ccccc3)c2)c(F)cc1CNC[C@H](O)c1ccc(O)c2[nH]c(=O)ccc12 here?
Its half-life at 1 h, 1 µM is 111 min.

For COc1cc(C(=O)NCCCOc2cccc([C@](O)(C(=O)OCC3CCN(Cc4ccccc4)CC3)c3ccccc3)c2)ccc1CNC[C@H](O)c1ccc(O)c2[nH]c(=O)ccc12, which half-life at 1 h, 1 µM is on record?
The half-life at 1 h, 1 µM was 237 min.

System: not listed separately
Test: in vitro
Conditions: rat, plasma
Description: Stability in rat plasma assessed as half-life at 5 uM incubated for 120 mins by LC-MS/MS analysis

Which half-life at 2 h, 5 µM does the source give for COc1cc(C(=O)NCCCOc2cccc([C@](O)(C(=O)OCC3CCN(Cc4ccccc4)CC3)c3ccccc3)c2)c(F)cc1CNC[C@H](O)c1ccc(O)c2[nH]c(=O)ccc12 here?
The half-life at 2 h, 5 µM was 55 min.

With COc1cc(C(=O)NCCCOc2cccc([C@](O)(C(=O)OCC3CCN(Cc4ccccc4)CC3)c3ccccc3)c2)ccc1CNC[C@H](O)c1ccc(O)c2[nH]c(=O)ccc12 as the compound, how does the half-life at 2 h, 5 µM read?
The half-life at 2 h, 5 µM was 36 min.

System: not listed separately
Test: in vitro
Conditions: human, hepatocytes
Description: Metabolic stability in human hepatocytes assessed as clearance measured per 10^6 cells at 1 uM incubated for 90 mins by LC-MS/MS analysis

Which hepatocyte CLint at 1.5 h, 1 µM does the source give for COc1cc(C(=O)NCCCOc2cccc([C@](O)(C(=O)OCC3CCN(Cc4ccccc4)CC3)c3ccccc3)c2)c(F)cc1CNC[C@H](O)c1ccc(O)c2[nH]c(=O)ccc12 here?
The hepatocyte CLint at 1.5 h, 1 µM was 20 µL/min/1e6 cells.

With COc1cc(C(=O)NCCCOc2cccc([C@](O)(C(=O)OCC3CCN(Cc4ccccc4)CC3)c3ccccc3)c2)ccc1CNC[C@H](O)c1ccc(O)c2[nH]c(=O)ccc12 as the compound, how does the hepatocyte CLint at 1.5 h, 1 µM read?
Its hepatocyte CLint at 1.5 h, 1 µM is 20 µL/min/1e6 cells.

Molecular target: Beta-2 adrenergic receptor (Cavia porcellus, UniProt Q8K4Z4)
Test: Agonist activity at beta2 adrenoceptor in male albino Dunkin-Hartley guinea pig trachea assessed as inhibition of histamine induced smooth muscle contraction
Conditions: not given

Sequence of Beta-2 adrenergic receptor (Cavia porcellus, UniProt Q8K4Z4) (Q8K4Z4 whole entry): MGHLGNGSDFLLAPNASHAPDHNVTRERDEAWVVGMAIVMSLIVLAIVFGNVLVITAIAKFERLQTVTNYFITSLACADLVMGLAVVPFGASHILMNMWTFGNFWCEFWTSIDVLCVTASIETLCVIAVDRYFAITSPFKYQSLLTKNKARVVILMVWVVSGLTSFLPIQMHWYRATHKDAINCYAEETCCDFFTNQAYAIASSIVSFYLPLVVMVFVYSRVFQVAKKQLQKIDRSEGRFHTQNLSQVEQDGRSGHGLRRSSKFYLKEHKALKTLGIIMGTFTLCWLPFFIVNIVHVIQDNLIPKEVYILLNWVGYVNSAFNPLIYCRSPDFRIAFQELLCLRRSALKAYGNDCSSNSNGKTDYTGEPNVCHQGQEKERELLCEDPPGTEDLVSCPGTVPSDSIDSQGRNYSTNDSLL

Which IC50 does the source give for COc1cc(C(=O)NCCCOc2cccc([C@](O)(C(=O)OCC3CCN(Cc4ccccc4)CC3)c3ccccc3)c2)c(F)cc1CNC[C@H](O)c1ccc(O)c2[nH]c(=O)ccc12 here?
The IC50 was 100 pM.

With O=C(c1ccc(OCc2ccc(CNC[C@H](O)c3ccc(O)c4[nH]c(=O)ccc34)cc2)cc1)N1CC(C(=O)OC2CN3CCC2CC3)(c2ccccc2)C1 (single isomer, unassigned) as the compound, how does the IC50 read?
The IC50 was 1000 pM.

Which IC50 does the source give for COc1cc(C(=O)NCCCOc2cccc([C@](O)(C(=O)OCC3CCN(Cc4ccccc4)CC3)c3ccccc3)c2)ccc1CNC[C@H](O)c1ccc(O)c2[nH]c(=O)ccc12 here?
The IC50 was 12.6 pM.

Which IC50 does the source give for O=C(N[C@@H](c1ccccc1)c1cccc(OCc2ccc(C(=O)NCCCNC[C@H](O)c3ccc(O)c4[nH]c(=O)ccc34)cc2)c1)O[C@@H]1CN2CCC1CC2 here?
The IC50 was 158 pM.

System: not listed separately
Test: in vitro
Conditions: rat, hepatocytes
Description: Metabolic stability in rat hepatocytes assessed as clearance measured per 10^6 cells at 1 uM incubated for 90 mins by LC-MS/MS analysis

For COc1cc(C(=O)NCCCOc2cccc([C@](O)(C(=O)OCC3CCN(Cc4ccccc4)CC3)c3ccccc3)c2)c(F)cc1CNC[C@H](O)c1ccc(O)c2[nH]c(=O)ccc12, which hepatocyte CLint at 1.5 h, 1 µM is on record?
Its hepatocyte CLint at 1.5 h, 1 µM is 33 µL/min/1e6 cells.

Which hepatocyte CLint at 1.5 h, 1 µM does the source give for COc1cc(C(=O)NCCCOc2cccc([C@](O)(C(=O)OCC3CCN(Cc4ccccc4)CC3)c3ccccc3)c2)ccc1CNC[C@H](O)c1ccc(O)c2[nH]c(=O)ccc12 here?
Its hepatocyte CLint at 1.5 h, 1 µM is 60 µL/min/1e6 cells.

Molecular target: Muscarinic acetylcholine receptor M3 (Cavia porcellus, UniProt Q8VH26)
Test: Antagonist activity at M3 receptor in male albino Dunkin-Hartley guinea pig trachea assessed as inhibition of carbachol-induced smooth muscle contraction in presence of propranolol
Conditions: not given

Sequence of Muscarinic acetylcholine receptor M3 (Cavia porcellus, UniProt Q8VH26) (Q8VH26 whole entry): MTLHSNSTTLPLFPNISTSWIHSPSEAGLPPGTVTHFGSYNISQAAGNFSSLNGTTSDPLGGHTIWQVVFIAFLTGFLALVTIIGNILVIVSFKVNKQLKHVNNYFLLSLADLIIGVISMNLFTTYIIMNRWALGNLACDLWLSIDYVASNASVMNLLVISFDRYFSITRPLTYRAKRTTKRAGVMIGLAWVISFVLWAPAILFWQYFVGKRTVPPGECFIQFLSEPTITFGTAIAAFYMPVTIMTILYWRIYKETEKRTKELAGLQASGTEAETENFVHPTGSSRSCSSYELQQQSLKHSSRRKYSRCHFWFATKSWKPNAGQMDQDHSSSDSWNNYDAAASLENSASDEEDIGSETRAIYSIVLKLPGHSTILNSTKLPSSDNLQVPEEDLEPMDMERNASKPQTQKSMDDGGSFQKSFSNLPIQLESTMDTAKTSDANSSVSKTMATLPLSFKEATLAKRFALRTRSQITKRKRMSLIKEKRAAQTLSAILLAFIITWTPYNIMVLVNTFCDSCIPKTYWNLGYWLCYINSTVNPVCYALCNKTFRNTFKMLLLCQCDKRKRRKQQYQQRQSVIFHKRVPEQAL

Which IC50 does the source give for COc1cc(C(=O)NCCCOc2cccc([C@](O)(C(=O)OCC3CCN(Cc4ccccc4)CC3)c3ccccc3)c2)c(F)cc1CNC[C@H](O)c1ccc(O)c2[nH]c(=O)ccc12 here?
Its IC50 is 794 pM.

For O=C(c1ccc(OCc2ccc(CNC[C@H](O)c3ccc(O)c4[nH]c(=O)ccc34)cc2)cc1)N1CC(C(=O)OC2CN3CCC2CC3)(c2ccccc2)C1 (single isomer, unassigned), which IC50 is on record?
The IC50 was 1000 pM.

Which IC50 does the source give for COc1cc(C(=O)NCCCOc2cccc([C@](O)(C(=O)OCC3CCN(Cc4ccccc4)CC3)c3ccccc3)c2)ccc1CNC[C@H](O)c1ccc(O)c2[nH]c(=O)ccc12 here?
The IC50 was 126 pM.

For O=C(N[C@@H](c1ccccc1)c1cccc(OCc2ccc(C(=O)NCCCNC[C@H](O)c3ccc(O)c4[nH]c(=O)ccc34)cc2)c1)O[C@@H]1CN2CCC1CC2, which IC50 is on record?
The IC50 was 200 pM.

Molecular target: Beta-2 adrenergic receptor (Homo sapiens, UniProt P07550)
Test: not given
Conditions: not given

Sequence of Beta-2 adrenergic receptor (Homo sapiens, UniProt P07550) (P07550 whole entry): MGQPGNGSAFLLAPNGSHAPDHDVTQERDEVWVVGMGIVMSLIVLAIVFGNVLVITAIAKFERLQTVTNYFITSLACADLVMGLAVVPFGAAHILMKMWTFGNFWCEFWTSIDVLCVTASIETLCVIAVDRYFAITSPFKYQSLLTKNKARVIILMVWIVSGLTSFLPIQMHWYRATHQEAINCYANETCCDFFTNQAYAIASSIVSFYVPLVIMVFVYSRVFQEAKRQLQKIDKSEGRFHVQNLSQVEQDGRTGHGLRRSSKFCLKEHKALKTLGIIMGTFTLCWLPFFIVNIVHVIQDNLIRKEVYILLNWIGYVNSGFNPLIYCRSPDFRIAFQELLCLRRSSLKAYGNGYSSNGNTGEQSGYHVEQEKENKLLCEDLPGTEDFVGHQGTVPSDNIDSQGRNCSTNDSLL

For COc1cc(C(=O)NCCCOc2cccc([C@](O)(C(=O)OCC3CCN(Cc4ccccc4)CC3)c3ccccc3)c2)c(F)cc1CNC[C@H](O)c1ccc(O)c2[nH]c(=O)ccc12, which Ki is on record?
The Ki was 251 pM.

Which Ki does the source give for O=C(c1ccc(OCc2ccc(CNC[C@H](O)c3ccc(O)c4[nH]c(=O)ccc34)cc2)cc1)N1CC(C(=O)OC2CN3CCC2CC3)(c2ccccc2)C1 (single isomer, unassigned) here?
Its Ki is 631 pM.

With COc1cc(C(=O)NCCCOc2cccc([C@](O)(C(=O)OCC3CCN(Cc4ccccc4)CC3)c3ccccc3)c2)ccc1CNC[C@H](O)c1ccc(O)c2[nH]c(=O)ccc12 as the compound, how does the Ki read?
Its Ki is 398 pM.

With O=C(N[C@@H](c1ccccc1)c1cccc(OCc2ccc(C(=O)NCCCNC[C@H](O)c3ccc(O)c4[nH]c(=O)ccc34)cc2)c1)O[C@@H]1CN2CCC1CC2 as the compound, how does the Ki read?
The Ki was 12.6 pM.

System: not listed separately
Test: in vitro
Conditions: human, lung S9 fraction
Description: Stability in human lung S9 fraction assessed as half-life at 1 uM incubated for 60 mins by LC-MS/MS analysis

Which half-life at 1 h, 1 µM does the source give for COc1cc(C(=O)NCCCOc2cccc([C@](O)(C(=O)OCC3CCN(Cc4ccccc4)CC3)c3ccccc3)c2)c(F)cc1CNC[C@H](O)c1ccc(O)c2[nH]c(=O)ccc12 here?
Its half-life at 1 h, 1 µM is 115 min.

For COc1cc(C(=O)NCCCOc2cccc([C@](O)(C(=O)OCC3CCN(Cc4ccccc4)CC3)c3ccccc3)c2)ccc1CNC[C@H](O)c1ccc(O)c2[nH]c(=O)ccc12, which half-life at 1 h, 1 µM is on record?
The half-life at 1 h, 1 µM was 240 min.

System: not listed separately
Test: in vitro
Conditions: guinea pig, plasma
Description: Stability in guinea pig plasma assessed as half-life at 5 uM incubated for 120 mins by LC-MS/MS analysis

With COc1cc(C(=O)NCCCOc2cccc([C@](O)(C(=O)OCC3CCN(Cc4ccccc4)CC3)c3ccccc3)c2)c(F)cc1CNC[C@H](O)c1ccc(O)c2[nH]c(=O)ccc12 as the compound, how does the half-life at 2 h, 5 µM read?
The half-life at 2 h, 5 µM was 8 min.

Which half-life at 2 h, 5 µM does the source give for COc1cc(C(=O)NCCCOc2cccc([C@](O)(C(=O)OCC3CCN(Cc4ccccc4)CC3)c3ccccc3)c2)ccc1CNC[C@H](O)c1ccc(O)c2[nH]c(=O)ccc12 here?
The half-life at 2 h, 5 µM was 6 min.
